Earlier results in US20090012284A1, “Process for the Preparation of a Piroxicam: Betacyclodextrin Inclusion Compound” (Chiesi Farmaceutici S.p.A., priority 2004, published 2009).

Conditions: pH 5, 37° C.

solubility in water: 0.003%
Compound: CN1C(C(=O)Nc2ccccn2)=C(O)c2ccccc2S1(=O)=O [Piroxicam]
